According to US4344958A, “Method of inhibiting sickling of sickle erythrocytes using substituted-2-imidazolines” (priority 1980, dated 1982):

Columns and labels:
Hb-S = Hb-S (Homo sapiens, UniProt P68871+P69905, E7V); test: Oxygen-Affinity Assay (whole Hb-S blood, tonometer); assay type: cell-based; design: key: ΔP50 in mm Hg (oxygen tension at 50% saturation, control vs treated); details: 37° C., difference control vs treated, negative = toward normal Hb-S oxygen affinity, oxygen partial pressure plotted in mm Hg
Description: The compounds described herein were tested in an "Oxygen-Affinity Assay" to measure the ability of the compound to influence the Hb-S oxygen affinity. There is a relationship between oxygen binding and Hb-S gelation and thus a measure of oxygen affinity is an index of Hb-S aggregation within the red blood cell. Hemoglobin S polymers decrease the overall oxygen affinity. Thus a return to normal of Hb-S oxygen affinity is a measure of decreased gelation. For measurements of oxygen equilibria whole Hb-S blood was equilibrated in a tonometer at 37° C. and measurements were made in the presence of a 5 millimolar (mM) or 10 mM concentration of the test compound. The whole blood pH, oxygen tension, and blood PO2 were measured. The percentage of oxygen saturation was plotted against the partial pressure of oxygen (mm Hg). The P50 value (oxygen tension at 50% saturation) was determined for each control and treated whole blood sample and the difference (Δ P50) between the control and treated whole blood sample noted. As used herein, a negative Δ P50 represents a change toward a normal Hb-S oxygen affinity and thus is a measure of the test compound's ability to inhibit the sickling of sickle erythrocytes.

[1] = normal adults, single dosages 25 to 250 milligrams, cited from earlier work
[2] = compound and its pharmaceutically-acceptable salts; cited from earlier work
[3] = compound and its pharmaceutically-acceptable salts; cited from earlier work; remark: listed apart in the source
[4] = compound and its pharmaceutically-acceptable salts; cited from earlier work; remark: listed apart in the source
[5] = compound and its pharmaceutically-acceptable salts; cited from earlier work; remark: listed apart in the source

Row | SMILES | Δ P50 (Hb-S; 5 mM test compound) | Δ P50 (Hb-S; 10 mM test compound) | further results
1 | Cl.Oc1ccc(SCC2=NCCN2)cc1Cl [Example 3, 2-Chloro-4-(((2-imidazolin-2-yl)methyl)thio)-phenol Hydrochloride] | 0 | -13.0 | –
2 | Cl.Cl.Nc1ccc(SCC2=NCCN2)cc1Cl [Example 4, 2-(((4-Amino-3-chlorophenyl)thio)methyl)-2-imidazoline Dihydrochloride] | -9 | -10.0 | –
3 | Clc1ccc(OCC2=NCCN2)cc1Cl [fenmetozole, 2-((3,4-Dichlorophenoxy)methyl)-2-imidazoline] | – | – | barbiturate antagonist activity [2]: barbiturate antagonist activity; alcohol antagonist activity [3]: alcohol antagonist activity; activity against minimal brain dysfunction in children [4]: activity against minimal brain dysfunction in children; antidepressant activity [5]: antidepressant

More lines, main results first:

Row | Δ P50 (Hb-S; 5 mM test compound) | Δ P50 (Hb-S; 10 mM test compound) | SMILES | further results
4 | -9 | -12.6 | Cl.Clc1ccc(NCC2=NCCN2)cc1Cl [Example 1, 2-((3,4-dichloroanilino)methyl)-2-imidazoline hydrochloride] | –
5 | -8 | -8.0 | Cl.Clc1ccc(OCC2=NCCN2)cc1Cl [Example 2, 2-((3,4-dichlorophenoxy)methyl)-2-imidazoline hydrochloride] | blood pressure ([1]; at high dose level): increased blood pressure; heart rate ([1]; at high dose level): decreased heart rate; ill effects [1]: no ill effects other than a "tingling sensation" on the skin reported by some of the subjects
